Source: patent US20250060368A1, “METHODS OF DETECTING AND TREATING IMMUNOTHERAPY-RESISTANT CANCER” (Washington University, priority 2022, published 2025)

Columns and labels:
[1] = test system: B-ALL; conditions: patients receiving blinatumomab or anti-CD19 CAR T for B-ALL; cited from earlier work
[2] = test system: B-ALL; test: Clinical case of B-ALL patient treated with blinatumomab and KTE-X19 (ZUMA-3); type: in vivo, human; conditions: person with B-ALL, CD19ΔTyr260
Protocol: A person with B-ALL was treated with chemotherapy followed by 2 cycles of blinatumomab as initial therapy. […] B lymphoblasts. Using targeted RNA sequencing, an in-frame deletion within the extracellular domain of CD19 at […]) was identified (FIG. 6A).

Question: With “blinatumomab: CD19 bispecific T-cell engager approved for R/R B-ALL” as the substance, how does the “Patients in whom emergence of CD19-negative clones is a cause of relapse” value [1] read?
Answer: The value was 10%-20%.

Question: What about the Clinical response [2] of the same substance?
Answer: Its Clinical response is “relapsed after the second cycle”.
